# From PubChem BioAssay (NCI)
#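 Test compounds were applied to cells in 96-well plates for 48 hours at 5 doses. GI50: concentration for 50% inhibition of growth. Definition used: TGI = concentration required for complete inhibition of growth.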
# Columns and labels:
# Test in all cases: NCI-60 cell line screen, 48 h
# [1] = tested on: MDA-MB-435
# [2] = tested on: COLO 205 colon
# [3] = tested on: RXF 393 renal
# [4] = tested on: CCRF-CEM leukemia
# [5] = tested on: SF-295 CNS
# [6] = tested on: NCI/ADR-RES ovarian
# [7] = tested on: UO-31 renal
# [8] = tested on: U251 CNS
# [9] = tested on: T-47D breast
# [10] = tested on: HOP-92 NSCLC
SMILES,GI50 [1] [nM],TGI [1] [nM],GI50 [2] [nM],TGI [2] [nM],GI50 [3] [nM],TGI [3] [nM],GI50 [4] [nM],TGI [4] [nM],GI50 [5] [nM],TGI [5] [nM],GI50 [6] [nM],TGI [6] [nM],GI50 [7] [nM],TGI [7] [nM],GI50 [8] [nM],TGI [8] [nM],GI50 [9] [nM],TGI [9] [nM],GI50 [10] [nM],TGI [10] [nM]
CC(CN)[C@@H]1CC[C@]2(CO)CC[C@]3(C)[C@H](CC[C@@H]4[C@@]5(C)CCC(NCCO)C(C)(C)[C@@H]5CC[C@]43C)[C@@H]12 (some centres not stated),1700,3140,1730,3550,1510,2970,1990,5000,1740,3400,6830,22200,2430,9570,1600,2950,2010,4580,1300,2940
O=C1C=CC(=O)C1(Br)Br,,29800,,24100,,15900,,26600,,34100,,68300,,18700,,29100,,51600,,40900
CS(=O)(=O)N1CCN(Cc2cc3nc(-c4cccc5[nH]ncc45)nc(N4CCOCC4)c3s2)CC1 (tested in a mixture with another compound),42.5,211,182,649,79.2,371,272,,62,468,284,,49.3,292,213,,20.7,105,114,829
O=C1C(Cl)=C(Nc2ccc3cn[nH]c3c2)C(=O)c2ccccc21,1510,2830,1420,2890,1540,2920,1520,3910,1670,4140,1620,3420,1250,2510,1310,2580,1240,3270,1570,3000
COc1ccc(C2NCCc3c2[nH]c2ccccc32)cc1CN1CCN(c2ccc(F)cc2)CC1 (configuration not stated),1660,3060,1930,3650,1370,2940,2800,7190,1750,3400,2270,5890,1570,4120,1560,2930,1880,3940,2000,5910
C/C=C(\C)C(=O)O[C@@H]1C(O)[C@H]2OC(COC(=O)CCC(=O)CCCCCC[C@H](CCCCC)O[C@@H]3OC(C)[C@H](OC(C)=O)C(O)[C@H]3O2)[C@H]1OC(=O)/C=C/c1ccccc1 (some centres not stated),< 10,4680,< 10,1790,< 10,4990,408,> 100000,< 10,1150,336,> 100000,< 10,8340,< 10,6390,< 10,761,< 10,415
Cc1cc(S(=O)(=O)Nc2nc3ccsc3c(=O)n2Cc2ccco2)c(S)cc1Cl,> 100000,> 100000,> 100000,> 100000,> 100000,> 100000,50700,> 100000,62800,> 100000,> 100000,> 100000,> 100000,> 100000,96300,> 100000,> 100000,> 100000,> 100000,> 100000
CCOC(=O)/C=C1\SC(=Nc2ccc(C#N)cc2)N(CCN2C(=O)/C(=C/C(=O)OCC)SC2=Nc2ccc(C#N)cc2)C1=O,3210,16000,3050,11500,2610,9390,613,16900,5590,25600,3210,42300,2000,11300,554,1940,2370,41200,13700,36500
